Literature values, collected in patent US5186913A, “Tungsten-188/carrier-free rhenium-188 perrhenic acid generator system” (Martin Marietta Energy Systems, Inc., priority 1991, dated 1993).
Where two headings read alike, the source gives them in different places.

What was measured:
[1] = not given; remark: listed apart in the source

[188W] [W-188, tungsten-188]
t1/2 (radioactive decay, parent isotope): 69.4 days

[188Re] [Re-188, Rhenium-188]
energy of gamma photon (gamma emission): 155 keV | abundance of gamma photon (gamma photon of 155 keV): about 15% | half-life (radioactive decay): 0.704 days | average energy of β emission (β emission): 764 keV

[Re] [Re, Rhenium]
distribution coefficient Dv (amount absorbed per liter resin bed/amount per liter solution) ([1]; 0.1M HNO3): 1×10^3 | distribution coefficient Dv (amount absorbed per liter resin bed/amount per liter solution) ([1]; 6M HNO3): ~ 1
